This is an account of results in ChEMBL document CHEMBL5241135, “Activity of N-phenylbenzamide analogs against the neglected disease pathogen, Schistosoma mansoni” (Bioorg Med Chem Lett, 2023).

The structures appear in SMILES notation. The source made the active and inactive calls. No cut-off for these calls is given here. Where only a bound is given, the exact number is not on record here.

Series [1] concerns Schistosoma mansoni. As to the kind of experiment: Antischistosomal activity against adult stage of Schistosoma mansoni assessed as degenerative and lethal changes at 5 uM measured after 1 hr. It counts as functional, organism-based.
Series [2] relates to Schistosoma mansoni. Kind of series: Antischistosomal activity against adult stage of Schistosoma mansoni assessed as uncoordinated and slowed motility at 5 uM measured after 1 hr. It counts as functional, organism-based.
Series [3] has as its system Schistosoma mansoni. Kind of series: Antischistosomal activity against adult stage of Schistosoma mansoni assessed as uncoordinated and slowed motility at 5 uM measured after 5 hrs. It counts as functional, organism-based.
Series [4] deals with Schistosoma mansoni. Kind of series: Antischistosomal activity against adult stage of Schistosoma mansoni assessed as degenerative and lethal changes at 5 uM measured after 48 hrs. The class given is functional, organism-based.
Series [5] relates to HEK293. Kind of series: Cytotoxicity against human HEK293 cells measured after 48 hrs. It counts as toxicity, cell-based. The conditions noted are these: hek293, 48 h.
For series [6], the system named is Schistosoma mansoni. Kind of series: Antischistosomal activity against adult stage of Schistosoma mansoni assessed as uncoordinated and slowed motility at 5 uM measured after 48 hrs. The class given is functional, organism-based.
For series [7], the system named is Schistosoma mansoni. As to the kind of experiment: Antischistosomal activity against adult stage of Schistosoma mansoni assessed as uncoordinated and slowed motility at 5 uM measured after 24 hrs. The class given is functional, organism-based.
Series [8] relates to Schistosoma mansoni. Kind of series: Antischistosomal activity against adult stage of Schistosoma mansoni assessed as degenerative and lethal changes at 5 uM measured after 24 hrs. It counts as functional, organism-based.
The test system of series [9] is Schistosoma mansoni. As to the kind of experiment: Antischistosomal activity against adult stage of Schistosoma mansoni assessed as degenerative and lethal changes at 5 uM measured after 5 hrs. The class given is functional, organism-based.
For series [10], the system named is Schistosoma mansoni. Kind of series: Antischistosomal activity against adult stage of Schistosoma mansoni assessed as reduction in worm motility measured after 24 hrs. The class given is functional, organism-based.
A short description of series [11]: Selectivity index, ratio of CC50 for human HEK293 cells to EC50 for antischistosomal activity against adult stage of Schistosoma mansoni. The class given is toxicity. The settings on record: read-out: Ratio CC50/EC50.

`COc1ccc(NC(=O)c2ccc(C#N)cc2)cc1OC`: the outcome in [1], in series [2], in series [3], in series [4], in series [6] and in series [7] was inactive. Moreover, the result in [8] and in series [9] was inactive. In series [5], the CC50 (commonly the concentration giving 50% cytotoxicity) was above 20 µM.

Consider `O=C(Nc1cccc(C(F)(F)F)c1)c1ccccc1`, for which the outcome in [4], in series [6], in series [7] and in [8] was inactive. The same compound returned a CC50 in series [5] above 20 µM.

Regarding `O=C(Nc1ccc(Cl)c(Cl)c1)c1ccc(F)cc1`, the outcome in [2], in [3], in [6] and in series [7] was Active. This compound had a CC50 in series [5] above 20 µM.

`Cc1ccc(NC(=O)c2ccc(C#N)cc2)cc1C`: the result in series [1], in [2], in series [3], in [4], in series [6] and in [7] was inactive. Further, the outcome in series [8] and in [9] was inactive. The compound further yielded a CC50 in series [5] above 20 µM.

Take `COc1ccc(NC(=O)c2ccc(F)cc2)cc1OC`: the outcome in series [3], in [4], in [6], in [7], in series [8] and in [9] was inactive. This compound had a CC50 in series [5] above 20 µM.

As for `O=C(Nc1ccc(F)c(F)c1)c1ccccc1`, the outcome in [1], in series [2], in [3], in series [4], in series [6] and in series [7] was inactive. For the same compound, the result in [8] and in series [9] was inactive. The CC50 in series [5] was above 20 µM.

As for `N#Cc1ccc(C(=O)Nc2cccc(C(F)(F)F)c2)cc1`, the outcome in [1], in series [2], in [3], in series [4], in series [6] and in [7] was inactive. Moreover, the result in series [8] and in series [9] was inactive. Besides, in [5], the CC50 was above 20 µM.

On to `COc1ccc(NC(=O)c2ccc(C(F)(F)F)cc2)cc1OC`, for which the outcome in series [1], in [2], in series [3], in series [4], in series [6] and in series [7] was inactive. In addition, the result in series [8] and in [9] was inactive. This compound showed a CC50 in series [5] above 20 µM.

Regarding `Cc1ccc(NC(=O)c2ccc(C(F)(F)F)cc2)cc1C`, the outcome in [2], in [3], in series [4] and in series [8] was Active. The compound also yielded a CC50 in [5] above 20 µM. Also, in [10], the EC50 (as a rule, the concentration at which the effect is half-maximal) stood at 3.7 µM. Besides, the selectivity ratio in series [11] was above 5.4.

On to `O=C(Nc1ccc(F)c(F)c1)c1ccc(F)cc1`, for which the result in series [4], in series [6], in series [7] and in series [8] was inactive. The compound also had a CC50 in [5] above 20 µM.

On to `COc1ccc(NC(=O)c2cc(Cl)ccc2O)cc1OC`, for which the outcome in series [1] and in [2] was inactive. In addition, the CC50 in series [5] is above 20 µM.

Take `O=C(Nc1ccccc1)c1ccc(F)cc1`: the result in [1], in series [2], in series [3], in series [4], in series [6] and in [7] was inactive. Besides, the outcome in [8] and in series [9] was inactive. The compound further displayed a CC50 in [5] above 20 µM.

As to `N#Cc1ccc(C(=O)Nc2ccc(F)c(F)c2)cc1`, the result in series [1], in [2], in series [3], in [4], in series [6] and in series [7] was inactive. Also, the outcome in series [8] and in series [9] was inactive. Also, in [5], the CC50 is above 20 µM.

For `Cc1ccc(NC(=O)c2ccccc2)cc1C`, the result in series [1], in [2], in series [3], in series [4], in series [6] and in series [7] was inactive. For the same compound, the result in [8] and in series [9] was inactive. Further, the CC50 in series [5] was above 20 µM.

As for `O=C(Nc1ccc(F)c(F)c1)c1ccc(C(F)(F)F)cc1`, the outcome in series [2], in series [3], in series [4] and in [7] was Active. In addition, in series [5], half-maximal cytotoxicity (CC50) was put at 14.6 µM. Also, in series [10], the EC50 amounted to 3.8 µM. Also, in [11], the selectivity ratio was 3.84.

Take `O=C(Nc1cccc(C(F)(F)F)c1)c1ccc(C(F)(F)F)cc1`: the result in [1], in series [4], in series [8] and in series [9] was Active. In series [10], the EC50 amounted to 1.1 µM. In [11], the selectivity ratio turned out to be 10.1.

In the case of `O=C(Nc1ccc(Cl)nn1)c1cccc(F)c1`, the outcome in series [1], in series [2], in series [3], in series [4], in series [6] and in [7] was inactive. Moreover, the result in series [8] and in [9] was inactive. Moreover, the CC50 in [5] was above 20 µM.

On to `O=C(Nc1ccc(Cl)c(Cl)c1)c1ccc(C(F)(F)F)cc1`, for which the result in [1], in [4], in [8] and in [9] was Active. Besides, the EC50 in series [10] was 0.08 µM. The selectivity ratio in series [11] turned out to be 123.

For the compound `Cc1ccc(NC(=O)c2ccc(F)cc2)cc1C`, the result in series [1], in [2], in series [3], in [4], in series [6] and in [7] was inactive. For the same compound, the result in series [8] and in [9] was inactive. Further, in series [5], the CC50 was above 20 µM.

`N#Cc1ccc(C(=O)Nc2ccccc2)cc1`: the outcome in series [1], in series [2], in [3], in series [4], in series [6] and in series [7] was inactive. Besides, the outcome in [8] and in [9] was inactive. Besides, the CC50 in series [5] was above 20 µM.

`O=C(Nc1ccc(Cl)c(Cl)c1)c1ccccc1`: the result in series [2], in [3], in series [6] and in series [7] was Active. The same compound gave a 50% cytotoxic concentration (CC50) in series [5] above 20 µM.

As for `O=C(Nc1ccc(C(F)(F)F)cc1)c1ccc(C(F)(F)F)cc1`, the result in series [4] and in [7] was Active. In series [5], this compound gave a CC50 above 20 µM. Besides, the EC50 in [10] stood at 1.25 µM. In addition, the selectivity ratio in series [11] is above 16.

For `COc1ccc(NC(=O)c2ccccc2)cc1OC`, the outcome in series [1], in [2], in [3], in series [4], in [6] and in series [7] was inactive. Besides, the result in [8] and in series [9] was inactive. Further, in series [5], the CC50 was above 20 µM.

For `O=C(Nc1cccc(C(F)(F)F)c1)c1ccc(F)cc1`, the outcome in series [3], in series [4], in series [6], in series [7], in series [8] and in series [9] was inactive. The CC50 in series [5] was above 20 µM.

On to `O=C(Nc1ccccc1)c1ccc(C(F)(F)F)cc1`, for which the outcome in [1], in series [2], in series [3], in [4], in series [6] and in series [7] was inactive. Besides, the outcome in series [8] and in series [9] was inactive. The compound further displayed a CC50 in series [5] above 20 µM.
